Source: US20230123277A1, “COMPOSITIONS COMPRISING 2'-DEOXYCYTIDINE ANALOGS AND USE THEREOF FOR THE TREATMENT OF SICKLE CELL DISEASE AND THALASSEMIA” (AkiraBio, Inc., priority 2021, published 2023)

Tests used:
[1] = tested on: pediatric brain tumor models; conditions: background statement; cited from earlier work
[2] = Relative thermodynamic stability of crystalline polymorphs (DSC); assay type: physicochemical; conditions: Form A compared with Form F, from melting temperatures
Procedure: DSC ANALYSIS. Thermal events (i.e., melting, re-crystallization) were obtained from DSC thermograms, recorded with a heat flux DSC3+ STARe system (Mettler-Toledo GmbH, Switzerland). The DSC3+ was calibrated for temperature and enthalpy with a small piece of indium (m.p.=156.6° C.; δHf=28.45 J/g) and zinc (m.p.=419.6° C.; δHf=107.5 J/g). Samples (circa 2 mg) were sealed in standard 40 μL aluminum pans, pin-holed and heated in the DSC from 25° C. to 300° C., at a heating rate of 10° C./min. Dry N2 gas, at a flow rate of 50 mL/min was used to purge the DSC equipment during measurement. The cycling DSC experiments were measured in standard 40 μL aluminum pans, pin-holed and heated in the DSC from 25° C. to variable temperatures, then cooled back to 25° C. The heating and cooling rate was 10° C./min. Dry N2 gas, at a flow rate of 50 mL/min was used to purge the DSC equipment during measurement. Afterwards the samples were recovered and analyzed by HT-XRPD.
Form A obtained from the solvent equilibration experiment at RT in TFE was used for the analytical characterization. […] (FIG. 12A). […] The LCMS analysis confirmed the Form A's integrity with a purity of 100% (area %) (FIG. 12C).
Form F obtained from the evaporative crystallization experiment using DMF/acetonitrile (80/20, v/v) was used for characterization. […]

## Nc1nc(=O)n([C@H]2C[C@H](O)[C@@H](CO)O2)cc1F [5-fluoro-2′-deoxycytidine, reference compound]
[1]
  therapeutic response: no significant therapeutic response

## Nc1ncn([C@H]2C[C@H](O)[C@@H](CO)S2)c(=O)n1 [5-aza-4′-thio-2′-deoxycytidine]
[1]
  therapeutic response: no significant therapeutic response

## Nc1ncn([C@H]2C[C@H](O)[C@@H](CO)S2)c(=O)n1 [Form A, 5-aza-4′-thio-2′-deoxycytidine]
[2]
  thermodynamic stability of the polymorph: thermodynamically more stable form
